Activity calls are given as the source filed them. No cut-off for these calls is given here.
Test system: Mus musculus
Experiment: Antipruritic activity in ddY mouse assessed as inhibition of compound 48/80-induced nose scratching behavior at 10 mg/kg, po for 20 mins preincubated 24 hrs before compound 48/80 challenge
Type: functional, organism-based
Design: dose 10 mg/kg

| SMILES | Activity |
| --- | --- |
| COC1=CC(=O)c2ccccc2C1=O | Active |
| COc1c(O[C@@H]2O[C@H](CO)[C@@H](O)[C@H](O)[C@H]2O)c2ccccc2c2oc3c(c12)C(=O)c1ccccc1C3=O | Active |

Reference: ChEMBL document CHEMBL1150946, “Antipruritic dinaphthofuran-7,12-dione derivatives from the pericarp of Impatiens balsamina” (J Nat Prod, 1998)
